Experiment [1] in a line: Compound was evaluated for reversible inhibition of hydrolysis acetylcholine by acetylcholinesterase and represented as KI(competitive).
Experiment [2] in a line: Compound was evaluated for reversible inhibition of hydrolysis acetylcholine by acetylcholinesterase and represented as KI(noncompetitive).
The nature of experiment [3]: Compound was evaluated for reversible inhibition of hydrolysis of acetylcholine by acetylcholinesterase and represented as KI(competitive).
The nature of experiment [4]: Compound was evaluated for reversible inhibition of hydrolysis acetylcholine by acetylcholinesterase and represented as KI(competitive). This is another data set of the same source.

Turning to `CS(=O)(=O)CCO` [2-Methanesulfonyl-ethanol], the inhibition constant (Ki) was found to be 8.7 mM in experiment [1] and 100 mM in experiment [2].
In turn, `C[Si](C)(C)CCO` [2-Trimethylsilanyl-ethanol] yielded a Ki in experiment [1] of 3.3 mM. This lies in the millimolar range.
Consider `C[N+](C)(C)CCO` [2-hydroxy-N,N,N-trimethylethanaminium], for which the affinity in experiment [2], expressed as Ki, was 7.6 mM.
Still for that read-out and setting: for `CC(C)(C)CCO` [3,3-Dimethyl-butan-1-ol] the value was 19 mM.
On to `CC(=O)CCC[N+](C)(C)[O-]` [5-dimethylamino-2-pentanone-N-oxide], for which the affinity in experiment [3] corresponds to a Ki of 14 mM.
The compound `CS(C)(I)CCO` [(2-Hydroxy-ethyl)-dimethyl-sulfonium; iodide] came in with a Ki in experiment [2] of 13 mM.
`CC(=O)OCCS(C)(=O)=O` [Acetic acid 2-methanesulfonyl-ethyl ester] gave a Ki in experiment [4] of 6.4 mM. This lies in the millimolar range.
As to `C[S+](C)C` [Trimethyl-sulfonium; iodide], the Ki in experiment [1] is 2 mM; in experiment [2] it was 7.2 mM.
